In US8841296B2, “Substituted 1, 4-dioxa-8-azaspiro[4,5]decanes useful as fungicides and a process for the preparation thereof” (Council of Scientific and Industrial Research, Anusandhan …, priority 2009, dated 2014):

Columns and labels:
grape powdery mildew = assay: Field experiment against grape powdery mildew; format: in vivo, grapevine; details: for PDI on Bunches 11 DAIIS / % Disease Control (11 DAIIS): 11 days after 2nd spray; for % Disease Control (11 DAIIS) / % Disease Control (15 DAIIS): over untreated check; for PDI on Bunches 15 DAIIS / % Disease Control (15 DAIIS): 15 days after 2nd spray
Description: A field experiment was conducted on pruned grapevine, in a randomized block design with ten treatments (Table No 1) and three replications. Two sprays were given at an interval of 10 days. The plot size was eight vines per treatment/replication. The spraying was done by Knapsack sprayer using 850 L spray volume/hectare. […] Based on the observations percent incidence was worked out.

grape downy mildew = assay: Field experiment against grape downy mildew; format: in vivo, grapevine
Description: A field experiment was conducted on pruned grapevine, in a randomized block design with ten treatments (Table No. 3) and three replications. Two sprays were given at an interval of 6 days starting at 28 days after pruning. The plot size was ten vines per treatment/replication. The spraying was done by Knapsack sprayer using 1000 L spray volume/hectare. […] Based on the observations, percent disease incidence was worked out. The data was subjected to statistical analysis.

Rhizoctonia solani = assay: Growth inhibition plate assay, R. solani; format: cell-based; details: ND = Not Detectable, read-out: Plate assay inhibition, P1 R. solani
Colletotrichum capsici = assay: Growth inhibition plate assay, C. capsici; format: cell-based; details: ND = Not Detectable; for inhibition at 25 ppm: Colletotrichum truncatum, read-out: Plate assay inhibition, P2 C. capsici
Drechslera oryzae = assay: Growth inhibition plate assay, D. oryzae; format: cell-based; details: ND = Not Detectable; for inhibition at 25 ppm: Bipolaris oryzae, read-out: Plate assay inhibition, P3 D. oryzae, 25 ppm
Fusarium oxysporum = assay: Growth inhibition plate assay, F. oxysporum; format: cell-based; details: ND = Not Detectable; for inhibition at 25 ppm: Fusarium oxysporum, read-out: Plate assay inhibition, P4 F. oxysporum
Pyrricularia oryzae = assay: microbe, parasite or virus in culture; format: cell-based; details: ND = Not Detectable; for inhibition at 25 ppm: Pyricularia oryzae, read-out: Plate assay inhibition, P5 P. oryzae, 25 ppm
Pythium aphanidermatum = assay: Growth inhibition plate assay, P. aphanidermatum; format: cell-based; details: ND = Not Detectable, read-out: Plate assay inhibition, P6 P. aphanidermatum
[1] = tested on: plant pathogenic fungi (all the test pathogens); format: cell-based; details: for fungicidal activity against plant pathogenic fungi: result in words
rose powdery mildew = assay: Field experiment against rose powdery mildew; format: in vivo; details: 4 days after spray; for Rose PM % Control: over untreated check
Description: Two sprays were given at an interval of 4 days. The spraying was done by Foot operated sprayer using 1200 L spray volume/hectare. […] Based on the observations percent incidence was worked out. The data was subjected to statistical analysis.

Magnaporthe grisea = format: cell-based
[2] = 20% EC @ 400 g a.i./ha, 7 days after 2nd spray
[3] = 20% EC @ 400 g a.i./ha, 7 days after 2nd spray, over untreated check
[4] = 20% EC @ 400 g a.i./ha, 10 days after 2nd spray
[5] = 20% EC @ 400 g a.i./ha, 10 days after 2nd spray, over untreated check
[6] = 20% EC @ 800 g a.i./ha, 7 days after 2nd spray
[7] = 20% EC @ 800 g a.i./ha, 7 days after 2nd spray, over untreated check
[8] = 20% EC @ 800 g a.i./ha, 10 days after 2nd spray
[9] = 20% EC @ 800 g a.i./ha, 10 days after 2nd spray, over untreated check

CO/C=C(/C(=O)OC)c1ccccc1Oc1cc(Oc2ccccc2C#N)ncn1 [Azoxystrobin, reference compound]
PDI on Bunches 11 DAIIS (grape powdery mildew; 25 SC @ 212 g a.i./ha): 8.68%
% Disease Control (11 DAIIS) (grape powdery mildew; 25 SC @ 212 g a.i./ha): 70.97%
PDI on Bunches 15 DAIIS (grape powdery mildew; 25 SC @ 212 g a.i./ha): 5.92%
% Disease Control (15 DAIIS) (grape powdery mildew; 25 SC @ 212 g a.i./ha): 77.34%
Grape Downy mildew incidence 7 DAIIS (grape downy mildew; 23 SC @ 230 g a.i./ha, 7 days after 2nd spray): 3.32%
% Control (7 DAIIS) (grape downy mildew; 23 SC @ 230 g a.i./ha, 7 days after 2nd spray, over untreated check): 80.29%
Grape Downy mildew incidence 10 DAIIS (grape downy mildew; 23 SC @ 230 g a.i./ha, 10 days after 2nd spray): 2.7%
% Control (10 DAIIS) (grape downy mildew; 23 SC @ 230 g a.i./ha, 10 days after 2nd spray, over untreated check): 88.14%

Clc1cc(Br)ccc1OCC1COC2(CCN(CCc3ccccc3)CC2)O1 (stereo not drawn) [Compound 2, 2-(4-bromo-2-chlorophenoxy)methyl-8-phenethyl-1,4-dioxa-8-azaspiro[4,5]decane]
inhibition at 25 ppm (Rhizoctonia solani): 90 to 100%
inhibition at 25 ppm (Colletotrichum capsici): 90 to 100%
inhibition at 25 ppm (Drechslera oryzae): 90 to 100%
inhibition at 25 ppm (Fusarium oxysporum): 90 to 100%
inhibition at 25 ppm (Pyrricularia oryzae): 90 to 100%
inhibition at 25 ppm (Pythium aphanidermatum): 90 to 100%
inhibition against all the test pathogens [1]: 90-100%
fungicidal activity against plant pathogenic fungi [1]: active against all pathogens
PDI on Bunches 11 DAIIS (grape powdery mildew; 20% EC @ 340 g a.i./ha): 12.96%
% Disease Control (11 DAIIS) (grape powdery mildew; 20% EC @ 340 g a.i./ha): 56.67%
PDI on Bunches 15 DAIIS (grape powdery mildew; 20% EC @ 340 g a.i./ha): 10.23%
% Disease Control (15 DAIIS) (grape powdery mildew; 20% EC @ 340 g a.i./ha): 60.84%
PDI on Bunches 11 DAIIS (grape powdery mildew; 20% EC @ 510 g a.i./ha): 13.6%
% Disease Control (11 DAIIS) (grape powdery mildew; 20% EC @ 510 g a.i./ha): 54.53%
PDI on Bunches 15 DAIIS (grape powdery mildew; 20% EC @ 510 g a.i./ha): 9.6%
% Disease Control (15 DAIIS) (grape powdery mildew; 20% EC @ 510 g a.i./ha): 63.26%
PDI on Bunches 11 DAIIS (grape powdery mildew; 20% EC @ 680 g a.i./ha): 12.48%
% Disease Control (11 DAIIS) (grape powdery mildew; 20% EC @ 680 g a.i./ha): 58.27%
PDI on Bunches 15 DAIIS (grape powdery mildew; 20% EC @ 680 g a.i./ha): 8.9%
% Disease Control (15 DAIIS) (grape powdery mildew; 20% EC @ 680 g a.i./ha): 65.93%
Grape Downy mildew incidence 7 DAIIS (grape downy mildew; [2]): comparable with standard check fungicides
Grape Downy mildew incidence 7 DAIIS (grape downy mildew; 20% EC @ 400 g a.i./ha, 7 days after 2nd spray, listed as Cpd 2): 4.46%
% Control (7 DAIIS) (grape downy mildew; [3]): 73.53%
Grape Downy mildew incidence 10 DAIIS (grape downy mildew; [4]): 7.58%
% Control (10 DAIIS) (grape downy mildew; [5]): 66.72%
Grape Downy mildew incidence 7 DAIIS (grape downy mildew; [6]): comparable with standard check fungicides
Grape Downy mildew incidence 7 DAIIS (grape downy mildew; 20% EC @ 800 g a.i./ha, 7 days after 2nd spray, listed as Cpd 2): 2.77%
% Control (7 DAIIS) (grape downy mildew; [7]): 83.56%
Grape Downy mildew incidence 10 DAIIS (grape downy mildew; [8]): at par with standard check fungicides
Grape Downy mildew incidence 10 DAIIS (grape downy mildew; 20% EC @ 800 g a.i./ha, 10 days after 2nd spray, listed as Cpd 2): 5.27%
% Control (10 DAIIS) (grape downy mildew; [9]): 76.86%
Rose PM % incidence 4 DAS (rose powdery mildew; 20% EC @ 720 g a.i./ha): 36.83%
Rose PM % Control (rose powdery mildew; 20% EC @ 720 g a.i./ha): 28.52%

c1ccc(CCN2CCC3(CC2)OCC(CN2CCOCC2)O3)cc1 (stereo not drawn) [Compound 3, 2-(morpholin-4-yl)methyl-8-phenethyl-1,4-dioxa-8-azaspiro[4,5]decane]
inhibition at 25 ppm (Rhizoctonia solani): 70 to 80%
inhibition at 25 ppm (Drechslera oryzae): 60 to 70%
inhibition at 25 ppm (Fusarium oxysporum): 70 to 80%
inhibition at 25 ppm (Pyrricularia oryzae): 40 to 50%

Clc1ncc(COCC2COC3(CCN(CCc4ccccc4)CC3)O2)s1 (stereo not drawn) [Compound 4, 2-(2-chloro-5-thiazolyl)methoxymethyl-8-phenethyl-1,4-dioxa-8-azaspiro[4,5]decane]
inhibition at 25 ppm (Rhizoctonia solani): 20 to 30%
inhibition at 25 ppm (Colletotrichum capsici): 20 to 30%
inhibition at 25 ppm (Fusarium oxysporum): 30 to 40%
inhibition at 25 ppm (Pyrricularia oryzae): 30 to 40%
inhibition against all the test pathogens [1]: 20-30%

c1ccc(CCN2CCC3(CC2)OCC(COCc2ccccc2)O3)cc1 (stereo not drawn) [Compound 5, 2-benzyloxymethyl-8-phenethyl-1,4-dioxa-8-azaspiro[4,5]decane]
inhibition at 25 ppm (Rhizoctonia solani): 40 to 50%
inhibition at 25 ppm (Drechslera oryzae): 60 to 70%
inhibition at 25 ppm (Fusarium oxysporum): 40 to 50%
inhibition against M. grisea (Magnaporthe grisea): 60-70%

c1ccc(CCN2CCC3(CC2)OCC(CSc2ccccc2)O3)cc1 (stereo not drawn) [Compound 6, 8-phenethyl-2-phenylsulphanylmethyl-1,4-dioxa-8-azaspiro[4,5]decane]
inhibition at 25 ppm (Rhizoctonia solani): 90 to 100%
Plate assay inhibition, P2 C. capsici (Colletotrichum capsici; 25 ppm, listed as C6): 60-70%
inhibition at 25 ppm (Colletotrichum capsici): 60 to 90%
Plate assay inhibition, P3 D. oryzae (Drechslera oryzae; 25 ppm, listed as C6): 70-80%
inhibition at 25 ppm (Drechslera oryzae): 60 to 90%
Plate assay inhibition, P4 F. oxysporum (Fusarium oxysporum; 25 ppm, listed as C6): 70-80%
inhibition at 25 ppm (Fusarium oxysporum): 60 to 90%
Plate assay inhibition, P5 P. oryzae (Pyrricularia oryzae; 25 ppm, listed as C6): 80-90%
inhibition at 25 ppm (Pyrricularia oryzae): 60 to 90%
inhibition at 25 ppm (Pythium aphanidermatum): 50 to 60%
fungicidal activity against plant pathogenic fungi [1]: active against all pathogens
PDI on Bunches 11 DAIIS (grape powdery mildew; 20% EC @ 340 g a.i./ha): 11.89%
% Disease Control (11 DAIIS) (grape powdery mildew; 20% EC @ 340 g a.i./ha): 60.24%
PDI on Bunches 15 DAIIS (grape powdery mildew; 20% EC @ 340 g a.i./ha): 10.6%
% Disease Control (15 DAIIS) (grape powdery mildew; 20% EC @ 340 g a.i./ha): 59.43%
% Disease Control (11 DAIIS) (grape powdery mildew; 20% EC @ 510 g a.i./ha): 66.26%
PDI on Bunches 15 DAIIS (grape powdery mildew; 20% EC @ 510 g a.i./ha): 9.1%
% Disease Control (15 DAIIS) (grape powdery mildew; 20% EC @ 510 g a.i./ha): 65.17%
% Disease Control (11 DAIIS) (grape powdery mildew; 20% EC @ 680 g a.i./ha): 69.6%
% Disease Control (15 DAIIS) (grape powdery mildew; 20% EC @ 680 g a.i./ha): 70.72%
Grape Downy mildew incidence 7 DAIIS (grape downy mildew; [2]): 16.14%
% Control (7 DAIIS) (grape downy mildew; [3]): 4.21%
Grape Downy mildew incidence 10 DAIIS (grape downy mildew; [4]): 24.88%
% Control (10 DAIIS) (grape downy mildew; [5]): 0%
Grape Downy mildew incidence 7 DAIIS (grape downy mildew; [6]): 16.91%
% Control (7 DAIIS) (grape downy mildew; [7]): 0%
Grape Downy mildew incidence 10 DAIIS (grape downy mildew; [8]): 17.7%
% Control (10 DAIIS) (grape downy mildew; [9]): 22.3%
Rose PM % incidence 4 DAS (rose powdery mildew; 20% EC @ 240 g a.i./ha): 38.42%
Rose PM % Control (rose powdery mildew; 20% EC @ 240 g a.i./ha): 25.44%
Rose PM % incidence 4 DAS (rose powdery mildew; 20% EC @ 480 g a.i./ha): 29.45%
Rose PM % Control (rose powdery mildew; 20% EC @ 480 g a.i./ha): 42.84%
Rose PM % incidence 4 DAS (rose powdery mildew; 20% EC @ 720 g a.i./ha): 23.21%
Rose PM % Control (rose powdery mildew; 20% EC @ 720 g a.i./ha): 54.95%

Fc1ccc(Cl)cc1NCC1COC2(CCN(Cc3cnc(Cl)s3)CC2)O1 (stereo not drawn) [Compound 8, N-(5-chloro-2-fluorophenyl)-N-{8-(2-chloro-5-thiazolyl)methyl-1,4-dioxa-8-aza-spiro[4,5]dec-2-yl}methanamine]
inhibition at 25 ppm (Fusarium oxysporum): 20 to 30%
inhibition at 25 ppm (Pythium aphanidermatum): 50 to 60%

COc1ccc(C(=CC(=O)N2CCOCC2)c2ccc(Cl)cc2)cc1OC [Dimethomorph, reference compound]
Grape Downy mildew incidence 7 DAIIS (grape downy mildew; 50 WP @ 500 g a.i./ha, 7 days after 2nd spray): 2.39%
Grape Downy mildew incidence 10 DAIIS (grape downy mildew; 50 WP @ 500 g a.i./ha, 10 days after 2nd spray): 2.42%
% Control (7 DAIIS) (grape downy mildew; 500 g/ha, 168 h): 85.81%
% Control (10 DAIIS) (grape downy mildew; 500 g/ha, 240 h): 89.37%

CCCCC(O)(Cn1cncn1)c1ccc(Cl)cc1Cl (stereo not drawn) [Hexaconazole, reference compound]
PDI on Bunches 11 DAIIS (grape powdery mildew; 5 E @ 42.50 g a.i./ha): 8.59%
% Disease Control (11 DAIIS) (grape powdery mildew; 5 E @ 42.50 g a.i./ha): 71.28%
PDI on Bunches 15 DAIIS (grape powdery mildew; 5 E @ 42.50 g a.i./ha): 4.81%
% Disease Control (15 DAIIS) (grape powdery mildew; 5 E @ 42.50 g a.i./ha): 81.59%

CO/N=C(/C(=O)OC)c1ccccc1COc1ccccc1C [Kresoxim methyl, reference compound]
PDI on Bunches 11 DAIIS (grape powdery mildew; 50 SC 425 g a.i./ha): 5.5%
% Disease Control (11 DAIIS) (grape powdery mildew; 50 SC 425 g a.i./ha): 81.61%
PDI on Bunches 15 DAIIS (grape powdery mildew; 50 SC 425 g a.i./ha): 3.55%
% Disease Control (15 DAIIS) (grape powdery mildew; 50 SC 425 g a.i./ha): 86.41%
